How the values were obtained:
[1] = target: T1, EhClpB (Ehrlichia chaffeensis, UniProt Q2GH96); settings: 5 mM ATP, 10 mM MgCl2, 100 mM Tris/HCl pH 8.0, 37 °C; basal activity
T1 construct: gene clpB

[2] = target: T2, EcClpB (Escherichia coli, UniProt P63284); experiment: phosphate release ATPase assay; type: biochemical; settings: 5 mM ATP, 10 mM MgCl2, 100 mM Tris/HCl pH 8.0, 37 °C; basal activity
T2 construct: gene clpB; purified, produced or obtained as previously described; hexamer

[3] = target: T2, EcClpB; experiment: filter retention with SDS-PAGE, nucleotide-induced binding to aggregated G6PDH; settings: 6 mM nucleotide, 20 mM Mg(OAc)2, 50 mM Tris/HCl pH 7.5, 30 °C; indirect read-out
[4] = target: ClpB from Ehrlichia chaffeensis (E. chaffeensis); experiment: AUC; sedimentation velocity, 48,000 rpm, 20°C, 0.3 mg/ml protein in 50 mM Hepes/KOH pH 7.5, 0.2 M KCl, 20 mM MgCl2, 1 mM EDTA, 2 mM β-mercaptoethanol, with 2 mM ATPγS

T2 sequence (P63284 whole entry): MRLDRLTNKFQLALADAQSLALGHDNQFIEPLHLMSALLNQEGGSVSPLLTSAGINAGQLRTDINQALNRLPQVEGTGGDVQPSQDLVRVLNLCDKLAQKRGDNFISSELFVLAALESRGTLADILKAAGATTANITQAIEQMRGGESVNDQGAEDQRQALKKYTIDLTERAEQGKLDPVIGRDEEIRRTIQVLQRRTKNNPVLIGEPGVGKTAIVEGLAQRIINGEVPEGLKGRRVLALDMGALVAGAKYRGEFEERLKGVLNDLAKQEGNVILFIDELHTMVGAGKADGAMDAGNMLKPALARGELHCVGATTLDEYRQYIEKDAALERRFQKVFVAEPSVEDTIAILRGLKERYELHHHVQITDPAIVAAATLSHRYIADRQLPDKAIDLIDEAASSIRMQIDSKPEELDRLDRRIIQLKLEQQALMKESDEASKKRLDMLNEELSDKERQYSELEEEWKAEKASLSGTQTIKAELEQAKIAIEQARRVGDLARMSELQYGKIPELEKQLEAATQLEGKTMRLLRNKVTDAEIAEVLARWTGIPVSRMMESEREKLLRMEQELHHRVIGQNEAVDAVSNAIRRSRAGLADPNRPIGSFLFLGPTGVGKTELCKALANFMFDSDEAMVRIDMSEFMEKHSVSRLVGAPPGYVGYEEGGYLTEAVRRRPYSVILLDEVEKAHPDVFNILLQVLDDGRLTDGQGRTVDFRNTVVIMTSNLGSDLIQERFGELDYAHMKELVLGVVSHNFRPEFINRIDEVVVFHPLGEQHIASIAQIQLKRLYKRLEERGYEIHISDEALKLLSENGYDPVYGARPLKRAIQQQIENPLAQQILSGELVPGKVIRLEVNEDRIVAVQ
T1 sequence (Q2GH96 entry or part of it): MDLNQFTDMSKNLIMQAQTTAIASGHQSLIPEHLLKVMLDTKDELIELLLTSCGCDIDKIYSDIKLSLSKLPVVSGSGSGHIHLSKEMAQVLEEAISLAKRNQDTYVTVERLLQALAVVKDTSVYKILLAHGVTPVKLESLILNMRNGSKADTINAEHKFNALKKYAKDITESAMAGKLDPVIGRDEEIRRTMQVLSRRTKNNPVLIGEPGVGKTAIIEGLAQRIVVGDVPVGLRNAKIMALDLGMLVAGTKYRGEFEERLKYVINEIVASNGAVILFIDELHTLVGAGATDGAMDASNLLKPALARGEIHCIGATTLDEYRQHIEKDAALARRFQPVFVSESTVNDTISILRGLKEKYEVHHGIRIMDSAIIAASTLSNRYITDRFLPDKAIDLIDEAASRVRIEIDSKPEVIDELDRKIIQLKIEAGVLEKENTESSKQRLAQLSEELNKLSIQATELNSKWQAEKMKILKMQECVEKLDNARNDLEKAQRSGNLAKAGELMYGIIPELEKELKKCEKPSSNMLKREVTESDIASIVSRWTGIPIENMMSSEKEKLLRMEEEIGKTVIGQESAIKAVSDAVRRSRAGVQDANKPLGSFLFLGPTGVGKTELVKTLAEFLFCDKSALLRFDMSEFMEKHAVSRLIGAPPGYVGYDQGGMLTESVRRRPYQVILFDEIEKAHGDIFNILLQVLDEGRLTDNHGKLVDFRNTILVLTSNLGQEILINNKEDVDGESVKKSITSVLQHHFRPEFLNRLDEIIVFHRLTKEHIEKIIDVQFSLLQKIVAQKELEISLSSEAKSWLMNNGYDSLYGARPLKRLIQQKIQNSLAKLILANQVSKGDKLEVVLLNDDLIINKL

## Nc1ncnc2c1ncn2[C@@H]1O[C@H](COP(=O)(O)OP(=O)(O)OP(=O)(O)O)[C@@H](O)[C@H]1O [ATP]
[1]
  phosphate release ATPase assay: the basal ATPase of EhClpB was similar to that of the purified EcClpB
[2]
  phosphate release ATPase assay: the basal ATPase of EhClpB was similar to that of the purified EcClpB

## Nc1ncnc2c1ncn2[C@@H]1O[C@H](COP(=O)(O)OP(=O)(O)OP(O)(O)=S)[C@@H](O)[C@H]1O [ATPγS, adenosine-5'-(γ-thio)-triphosphate]
[3]
  filter retention with SDS-PAGE, nucleotide-induced binding to aggregated G6PDH: only ATPγS induces significant binding of EcClpB to the aggregates

## ClpB from Ehrlichia chaffeensis (natural protein)
[4]
  stoichiometry N: 6
